Where a name gives a salt, the structure may show the parent alone.
Experiments:
Format in all cases: biochemical
JAK1 = molecular target: T1, JAK1 (Homo sapiens, UniProt P23458); assay: JAK tyrosine kinase inhibitory activity in the presence of 1 mM ATP (ELISA), JAK1
T1 construct: purchased Carna Biosciences, Inc
Summary of the method: (§1)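 Kinase reactions ran on streptavidin-coated plates in 15 mM Tris-HCl pH 7.5, 0.01% Tween-20, 1 mM DTT, 30 °C for 1 h. Enzyme was prediluted to 7.5 nM (JAK1) or 0.75 nM (JAK2, JAK3) before addition. Phosphotyrosine was detected with HRP anti-pTyr antibody and TMB at A450.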

JAK2 = molecular target: T2, JAK2 (Homo sapiens, UniProt O60674); assay: JAK tyrosine kinase inhibitory activity in the presence of 1 mM ATP (ELISA), JAK2
T2 construct: purchased Carna Biosciences, Inc
T2 sequence (O60674 whole entry): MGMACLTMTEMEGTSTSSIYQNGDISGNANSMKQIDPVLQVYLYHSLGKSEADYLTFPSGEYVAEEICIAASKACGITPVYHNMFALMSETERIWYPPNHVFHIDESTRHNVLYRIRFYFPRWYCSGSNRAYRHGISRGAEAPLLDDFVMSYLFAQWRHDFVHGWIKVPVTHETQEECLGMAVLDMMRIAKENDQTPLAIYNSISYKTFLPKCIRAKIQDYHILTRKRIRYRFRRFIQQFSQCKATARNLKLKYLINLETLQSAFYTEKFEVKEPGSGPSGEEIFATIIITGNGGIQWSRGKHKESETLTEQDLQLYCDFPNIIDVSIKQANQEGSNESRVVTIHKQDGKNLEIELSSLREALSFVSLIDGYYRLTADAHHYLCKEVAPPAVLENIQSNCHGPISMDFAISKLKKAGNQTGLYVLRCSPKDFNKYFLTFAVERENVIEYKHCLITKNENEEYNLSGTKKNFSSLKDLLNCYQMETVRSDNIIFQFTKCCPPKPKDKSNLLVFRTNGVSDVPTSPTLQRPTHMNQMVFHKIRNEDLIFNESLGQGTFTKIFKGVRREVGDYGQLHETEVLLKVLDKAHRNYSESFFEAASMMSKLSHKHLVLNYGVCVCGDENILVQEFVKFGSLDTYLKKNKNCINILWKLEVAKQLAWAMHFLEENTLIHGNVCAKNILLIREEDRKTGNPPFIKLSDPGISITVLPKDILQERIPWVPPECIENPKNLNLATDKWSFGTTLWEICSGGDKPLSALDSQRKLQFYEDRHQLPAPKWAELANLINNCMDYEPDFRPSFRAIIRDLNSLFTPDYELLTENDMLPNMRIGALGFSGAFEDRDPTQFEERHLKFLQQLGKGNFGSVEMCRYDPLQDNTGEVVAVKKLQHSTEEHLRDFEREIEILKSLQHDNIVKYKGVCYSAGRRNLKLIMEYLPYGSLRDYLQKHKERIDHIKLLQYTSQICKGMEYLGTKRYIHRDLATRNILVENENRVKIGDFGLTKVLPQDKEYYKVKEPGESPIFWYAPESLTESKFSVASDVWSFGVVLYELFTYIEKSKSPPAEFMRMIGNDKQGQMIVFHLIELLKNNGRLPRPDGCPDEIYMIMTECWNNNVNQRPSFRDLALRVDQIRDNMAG
Summary of the method: as §1

JAK3 = molecular target: T3, JAK3 (Homo sapiens, UniProt P52333); assay: JAK tyrosine kinase inhibitory activity in the presence of 1 mM ATP (ELISA), JAK3
T3 construct: purchased Carna Biosciences, Inc
T3 sequence (P52333 1-1124): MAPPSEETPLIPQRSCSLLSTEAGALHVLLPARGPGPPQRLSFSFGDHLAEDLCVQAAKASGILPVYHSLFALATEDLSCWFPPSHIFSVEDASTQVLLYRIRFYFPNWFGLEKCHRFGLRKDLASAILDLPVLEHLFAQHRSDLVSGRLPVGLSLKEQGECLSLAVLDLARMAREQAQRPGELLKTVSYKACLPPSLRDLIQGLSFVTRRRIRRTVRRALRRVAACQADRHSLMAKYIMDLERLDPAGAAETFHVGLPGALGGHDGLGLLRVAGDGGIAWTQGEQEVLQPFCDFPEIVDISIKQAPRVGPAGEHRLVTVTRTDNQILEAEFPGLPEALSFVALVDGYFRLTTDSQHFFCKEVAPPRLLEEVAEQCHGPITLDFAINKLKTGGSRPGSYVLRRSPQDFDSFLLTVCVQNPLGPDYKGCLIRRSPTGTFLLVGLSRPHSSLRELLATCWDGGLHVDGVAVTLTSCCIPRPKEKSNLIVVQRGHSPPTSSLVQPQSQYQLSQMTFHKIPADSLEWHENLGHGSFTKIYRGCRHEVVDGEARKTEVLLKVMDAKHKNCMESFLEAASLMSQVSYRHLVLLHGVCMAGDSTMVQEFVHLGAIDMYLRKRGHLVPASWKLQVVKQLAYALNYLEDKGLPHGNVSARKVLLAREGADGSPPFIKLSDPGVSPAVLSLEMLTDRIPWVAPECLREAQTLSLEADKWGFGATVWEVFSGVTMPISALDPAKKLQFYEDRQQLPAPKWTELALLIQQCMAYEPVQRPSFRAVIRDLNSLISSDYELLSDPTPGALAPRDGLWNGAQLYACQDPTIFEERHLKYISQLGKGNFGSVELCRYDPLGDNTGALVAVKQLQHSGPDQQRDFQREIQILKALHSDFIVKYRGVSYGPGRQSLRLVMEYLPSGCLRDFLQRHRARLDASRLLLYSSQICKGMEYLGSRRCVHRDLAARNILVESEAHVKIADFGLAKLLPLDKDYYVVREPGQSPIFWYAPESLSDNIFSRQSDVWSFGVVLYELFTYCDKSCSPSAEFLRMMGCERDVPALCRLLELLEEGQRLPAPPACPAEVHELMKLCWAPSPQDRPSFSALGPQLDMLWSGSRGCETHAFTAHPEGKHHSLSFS
Summary of the method: as §1

T1 sequence (P23458 whole entry): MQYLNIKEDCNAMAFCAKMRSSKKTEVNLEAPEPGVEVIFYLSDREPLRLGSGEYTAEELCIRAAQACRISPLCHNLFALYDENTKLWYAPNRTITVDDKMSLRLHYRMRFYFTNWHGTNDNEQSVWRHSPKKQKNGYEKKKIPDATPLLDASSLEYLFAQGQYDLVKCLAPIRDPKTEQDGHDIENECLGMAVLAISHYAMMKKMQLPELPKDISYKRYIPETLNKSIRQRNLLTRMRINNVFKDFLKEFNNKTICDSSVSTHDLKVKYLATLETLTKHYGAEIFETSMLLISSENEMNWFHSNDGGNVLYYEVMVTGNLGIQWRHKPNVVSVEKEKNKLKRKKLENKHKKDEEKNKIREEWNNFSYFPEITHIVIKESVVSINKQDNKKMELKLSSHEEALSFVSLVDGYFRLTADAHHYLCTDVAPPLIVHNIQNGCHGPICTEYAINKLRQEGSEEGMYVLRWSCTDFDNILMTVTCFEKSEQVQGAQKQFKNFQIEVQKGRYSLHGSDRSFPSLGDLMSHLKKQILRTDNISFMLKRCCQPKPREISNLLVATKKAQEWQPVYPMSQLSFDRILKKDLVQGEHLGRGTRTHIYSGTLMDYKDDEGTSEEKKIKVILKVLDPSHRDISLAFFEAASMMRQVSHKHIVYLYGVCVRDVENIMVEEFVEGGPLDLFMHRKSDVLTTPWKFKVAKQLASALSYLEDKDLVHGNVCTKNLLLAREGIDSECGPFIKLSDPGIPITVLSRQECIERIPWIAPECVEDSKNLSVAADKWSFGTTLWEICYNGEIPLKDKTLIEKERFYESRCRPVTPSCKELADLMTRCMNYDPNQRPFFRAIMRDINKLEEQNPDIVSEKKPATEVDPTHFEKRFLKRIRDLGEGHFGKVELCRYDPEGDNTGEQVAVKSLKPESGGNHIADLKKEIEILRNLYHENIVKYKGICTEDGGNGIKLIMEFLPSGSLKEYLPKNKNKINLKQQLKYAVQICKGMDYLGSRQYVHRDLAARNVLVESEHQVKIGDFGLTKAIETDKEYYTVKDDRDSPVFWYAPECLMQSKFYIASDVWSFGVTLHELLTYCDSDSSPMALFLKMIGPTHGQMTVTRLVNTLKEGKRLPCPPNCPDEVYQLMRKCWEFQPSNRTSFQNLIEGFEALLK

IC50 (JAK1)	IC50 (JAK2)	IC50 (JAK3)	SMILES
270 nM	2400 nM	> 10000 nM	C[C@@H](C1CC1)N(C)c1cc(C(=O)N2CCC(Nc3ncccn3)CC2)nc(-c2cnn3ccsc23)n1 [Example 35, [6-{[(1S)-1-Cyclopropylethyl](methyl)amino}-2-(pyrazolo[5,1-b][1,3]thiazol-7-yl)pyrimidin-4-yl][4-(pyrimidin-2-ylamino)piperidin-1-yl]methanone]
68 nM	2400 nM	3700 nM	CC(C)(C)Nc1cc(C(=O)N2CCC(NC(=O)OC3CC3)CC2)nc(-c2cnn3ccsc23)n1 [Example 135, Cyclopropyl (1-{[6-(tert-butylamino)-2-(pyrazolo[5,1-b][1,3]thiazol-7-yl)pyrimidin-4-yl]carbonyl}piperidin-4-yl)carbamate]
40 nM	> 10000 nM	1200 nM	C[C@H](Nc1cc(C(=O)N2CCC(NC(=O)C3CCC3)CC2)nc(-c2cnn3ccsc23)n1)C1CC1 [Example 165, N-1-[6-[(1S)-1-cyclopropylethyl]amino-2-(pyrazolo[5,1-b][1,3]thiazol-7-yl)pyrimidine-4-carbonyl]piperidin-4-yl cyclobutanecarboxamide]
860 nM	> 10000 nM	> 10000 nM	O=C(NC1CCN(C(=O)c2cc(NC3CCNCC3)nc(-c3cnn4ccsc34)n2)CC1)C1CC1 [Example 181, N-(1-6-[(piperidin-4-yl)amino]-2-(pyrazolo[5,1-b][1,3]thiazol-7-yl)pyrimidine-4-carbonylpiperidin-4-yl)cyclopropanecarboxamide dihydrochloride]
480 nM	> 10000 nM	6600 nM	COC(=O)NC1CCN(C(=O)c2cc(NC3(C#N)CC3)nc(-c3cnn4ccsc34)n2)CC1 [Example 144, Methyl [1-({6-[(1-cyanocyclopropyl)amino]-2-(pyrazolo[5,1-b][1,3]thiazol-7-yl)pyrimidin-4-yl}carbonyl)piperidin-4-yl]carbamate]
350 nM	1900 nM	3000 nM	C[C@H](Nc1cc(C(=O)N2CCC(NC(=O)NC3CC3)CC2)nc(-c2cnn3ccsc23)n1)C1CC1 [Example 34, 1-Cyclopropyl-3-(1-{[6-{[(1S)-1-cyclopropylethyl]amino}-2-(pyrazolo[5,1-b][1,3]thiazol-7-yl)pyrimidin-4-yl]carbonyl}piperidin-4-yl)urea]
1000 nM	> 10000 nM	> 10000 nM	COC(=O)NC1CCN(C(=O)c2cc(N[C@H]3CCNC3)nc(-c3cnn4ccsc34)n2)CC1 [Example 149, Methyl [1-({2-(pyrazolo[5,1-b][1,3]thiazol-7-yl)-6-[(3S)-pyrrolidin-3-ylamino]pyrimidin-4-yl}carbonyl)piperidin-4-yl]carbamate dihydrochloride]
980 nM	> 10000 nM	> 10000 nM	O=C(NC1CCN(C(=O)c2cc(NCc3ccco3)nc(-c3cnn4ccsc34)n2)CC1)C1CC1 [Example 160, N-1-[6-[(furan-2-yl)methyl]amino-2-(pyrazolo[5,1-b][1,3]thiazol-7-yl)pyrimidine-4-carbonyl]piperidin-4-ylcyclopropanecarboxamide]
1600 nM	> 10000 nM	> 10000 nM	COC(=O)NC1CCN(C(=O)c2cc(N[C@@H]3CCN(C(=O)OC(C)(C)C)C3)nc(-c3cnn4ccsc34)n2)CC1 [Example 148, tert-Butyl (3R)-3-{[6-({4-[(methoxycarbonyl)amino]piperidin-1-yl}carbonyl)-2-(pyrazolo[5,1-b][1,3]thiazol-7-yl)pyrimidin-4-yl]amino}pyrrolidine-1-carboxylate]
190 nM	1800 nM	2400 nM	CCC(CC)Nc1cc(C(=O)N2CCC(NC(=O)OC)CC2)nc(-c2cnn3ccsc23)n1 [Example 109, Methyl (1-{[6-(pentan-3-ylamino)-2-(pyrazolo[5,1-b][1,3]thiazol-7-yl)pyrimidin-4-yl]carbonyl}piperidin-4-yl)carbamate]
96 nM	> 10000 nM	> 10000 nM	COC(=O)NC1CCN(C(=O)c2cc(NCC3CCN(S(C)(=O)=O)CC3)nc(-c3cnn4ccsc34)n2)CC1 [Example 175, Methyl 1-[6-([1-(methanesulfonyl)piperidin-4-yl]methylamino)-2-(pyrazolo[5,1-b][1,3]thiazol-7-yl)pyrimidine-4-carbonyl]piperidin 4-ylcarbamate]
130 nM	> 10000 nM	> 10000 nM	O=C(NC1CCN(C(=O)c2cc(OCC3CC3)nc(-c3cnn4ccsc34)n2)CC1)C1CC1 [Example 43, N-(1-{[6-(Cyclopropylmethoxy)-2-(pyrazolo[5,1-b][1,3]thiazol-7-yl)pyrimidin-4-yl]carbonyl}piperidin-4-yl)cyclopropanecarboxamide]
310 nM	6100 nM	5900 nM	CC(C)(C)Nc1cc(C(=O)N2CCC(Nc3ccccn3)CC2)nc(-c2cnn3ccsc23)n1 [Example 72, [6-(tert-Butylamino)-2-(pyrazolo[5,1-b][1,3]thiazol-7-yl)pyrimidin-4-yl][4-(pyridin-2-ylamino)piperidin-1-yl]methanone]
68 nM	2100 nM	1800 nM	C[C@H](Nc1cc(C(=O)N2CCC(NC(=O)c3ccncc3)CC2)nc(-c2cnn3ccsc23)n1)C1CC1 [Example 187, N-1-[6-[(1S)-1-cyclopropylethyl]amino-2-(pyrazolo[5,1-b][1,3]thiazol-7-yl)pyrimidine-4-carbonyl]piperidin-4-ylpyridine-4-carboxamide]
190 nM	> 10000 nM	810 nM	C[C@H](Nc1cc(C(=O)N2CCC(NC(=O)c3ccccn3)CC2)nc(-c2cnn3ccsc23)n1)C1CC1 [Example 185, N-1-[6-[(1S)-1-cyclopropylethyl]amino-2-(pyrazolo[5,1-b][1,3]thiazol 7 yl)pyrimidine-4-carbonyl]piperidin-4-ylpyridine-2-carboxamide]
150 nM	930 nM	4800 nM	CC(C)(C)Nc1cc(C(=O)N2CCC(Nc3nccs3)CC2)nc(-c2cnn3ccsc23)n1 [Example 75, [6-(tert-Butylamino)-2-(pyrazolo[5,1-b][1,3]thiazol-7-yl)pyrimidin-4-yl][4-(1,3-thiazol-2-ylamino)piperidin-1-yl]methanone]
110 nM	1400 nM	> 10000 nM	C[C@H](Nc1cc(C(=O)N2CCC(NC(=O)c3ccccc3)CC2)nc(-c2cnn3ccsc23)n1)C1CC1 [Example 30, N-(1-{[6-{[(1S)-1-Cyclopropylethyl]amino}-2-(pyrazolo[5,1-b][1,3]thiazol-7-yl)pyrimidin-4-yl]carbonyl}piperidin-4-yl)benzamide]
260 nM	1200 nM	> 10000 nM	COCC(C)(C)Nc1cc(C(=O)N2CCC(NC(=O)C3CC3)CC2)nc(-c2cnn3ccsc23)n1 [Example 38, N-[1-({6-[(1-Methoxy-2-methylpropan-2-yl)amino]-2-(pyrazolo[5,1-b][1,3]thiazol-7-yl)pyrimidin-4-yl}carbonyl)piperidin-4-yl]cyclopropanecarboxamide]
490 nM	1400 nM	3500 nM	CC(C)[C@@H](C)Nc1cc(C(=O)N2CCC(NC(=O)C(F)F)CC2)nc(-c2cnn3ccsc23)n1 [Example 136, 2,2-Difluoro-N-(1-{[6-{[(2R)-3-methylbutan-2-yl]amino}-2-(pyrazolo[5,1-b][1,3]thiazol-7-yl)pyrimidin-4-yl]carbonyl}piperidin-4-yl)acetamide]

SMILES	IC50 (JAK1)	IC50 (JAK2)	IC50 (JAK3)
CCC(=O)NC1CCN(C(=O)c2cc(OCC(CC)CC)nc(-c3cnn4ccsc34)n2)CC1 [Example 114, N-(1-{[6-(2-Ethylbutoxy)-2-(pyrazolo[5,1-b][1,3]thiazol-7-yl)pyrimidin-4-yl]carbonyl}piperidin-4-yl)propanamide]	360 nM	1200 nM	2700 nM
